Tests used:
Type in all cases: in vivo
[1] = tested on: soybean having both the Als1 and Als2 mutations; experiment: Greenhouse postemergence test of ALS-inhibiting herbicides and isobole analysis, soybean with Als1 and Als2 mutations; settings: for Avg response (% phytotoxicity), Trait Als1 + Als2: Table 2; for EC10, Als1 + Als2: rate of herbicide estimated to cause 10% phytotoxic response, loglogistic fit
Protocol: (§1) Soybean lines having wild type als1 & 2 genes, the Als1 mutation, the Als2 mutation, or both the Als1 and Als2 mutations were evaluated for their response to various herbicides. Two seeds from each line were planted into 4-inch pots containing Redi-Earth potting mix (Sun Gro Horticulture Canada Ltd. 52130 RR65, Seba Beach, Alberta TOE 2B0), with two replications planted for each treatment. Pots were placed in flats at 15 pots/flat, and the resulting plants were grown in a greenhouse environment supplemented with lighting (16 hr photoperiod) for the duration of the test. Selected herbicides representing the mode of action that inhibits the acetolactate synthase enzyme, also known as the acetohydroxyacid synthase enzyme, were applied postemergence to soybean when soybean plants were at the V2 growth stage, which is the stage at which the first two trifoliolate leaves were expanded.
(§2) Eleven active ingredients representing the five chemical families with herbicidal activity on the acetolactate synthase enzyme were tested. These herbicides can cause a phytotoxic response in wild type soybean plants. The five chemical families tested were sulfonylaminocarbonyltriazolinone (also known as triazolinone), imidazolinone, sulfonylurea, pyrimidinylthiobenzoate, and triazolopyrimidine. Application rates ranged from 0.5 times to eight times the currently labeled application rate for each active ingredient with spray application volume at 30 gallons/acre. The application rates tested were 0.5×, 1×, 2×, 4× and 8× the label rate for each herbicide. Herbicidal active ingredients were applied as formulated materials dispersed in water containing 0.25% nonionic surfactant (Trend® 90).
(§3) The test was evaluated by visually scoring plant phenotype 14 days after the herbicides were applied. Controls consisted of soybean plants of the same variety that received no herbicide treatments for each of all the varieties tested. Soybean response was recorded on a zero to 100 visual scale in which zero is no phytotoxic response and 100 is plant death fourteen days after the herbicides were applied. Soybean response (percent phytotoxicity) to postemergence applications of herbicides inhibiting the acetolactate synthase enzyme test results are shown in Table 1.
(§4) Results in Table 1 were evaluated using the isobole method for analyzing interactions. […] Here the biologically active agents that are being assessed for interaction (synergy) are gene mutations in soybean. The effectiveness of the genes in providing improved tolerance to ALS-inhibiting herbicides was assessed by applying increasing doses of herbicides to each soybean line with its mutation(s).
(§5) An isobole reduces a dose response surface in three dimensional space to a two dimensional plot by fixing a defined response level (e.g., 50% response). The isobole plot is a graph in the Cartesian plane with a straight line connecting the isoeffective rates of the individual components of the combination. This straight line represents expected responses for zero interactive combinations. The isoeffective rate used to create the isobole is often the EC50, the rate estimated to elicit 50% response, but other ECx values can be used. Since the isobole method is based on the potency of the components of the combination, an experimental design testing a range of rates expected to elicit the full range of responses (e.g., 0 to maximum response) is best. (Ferry et al. (2005) 2005 Conference on Applied Statistics in Agriculture Proceedings pp 33-50, Manhattan, Kans., Kansas State Univ.; Green and Streibig (1993) Herbicide Mixtures, pp 117-134 in Herbicide Bioassays, Streibig and Hudsk Eds, CRC, Boca Raton, Fla.).
(§6) Loglogistic dose response curves were fit to percent phytotoxicity response data using log 10 of dose (McCullagh and Nelder (1989) Generalized Linear Models, Chapman & Hall, London). Curves were fit using the logit link with normal errors. […]

wild type soybean = experiment: Greenhouse postemergence test of ALS-inhibiting herbicides, wild type soybean
Protocol: as §1, §2, §3

[2] = tested on: soybean having the Als1 mutation; experiment: Greenhouse postemergence test of ALS-inhibiting herbicides, soybean with Als1 mutation; settings: for Avg response (% phytotoxicity), Trait Als1: Table 2; for EC10, Als1: rate of herbicide estimated to cause 10% phytotoxic response, loglogistic fit
Protocol: as §1, §2, §3, §4, §5, §6

[3] = tested on: soybean having the Als2 mutation; experiment: Greenhouse postemergence test of ALS-inhibiting herbicides, soybean with Als2 mutation; settings: for Avg response (% phytotoxicity), Trait Als2: Table 2; for EC10, Als2: rate of herbicide estimated to cause 10% phytotoxic response, loglogistic fit
Protocol: as §1, §2, §3, §4, §5, §6

[4] = 4.38 g ai/ha postemergence at V2, scored 14 days after application
[5] = 8.75 g ai/ha postemergence at V2, scored 14 days after application
[6] = 17.5 g ai/ha postemergence at V2, scored 14 days after application
[7] = 35 g ai/ha postemergence at V2, scored 14 days after application
[8] = 70 g ai/ha postemergence at V2, scored 14 days after application
[9] = rates 0.5x to 8x the label rate

Cc1cc(C)nc(NC(=O)NS(=O)(=O)c2ccccc2C(=O)O)n1 [Sulfometuron]
substantial phytotoxicity: phytotoxicity (in words), soybean containing only the Als1 gene ([2]; the higher doses) | phytotoxicity (in words), soybean containing only the Als2 gene ([3]; the higher doses)
60%: Soybean response (percent phytotoxicity), Wild type (wild type soybean; [4])
55%: Soybean response (percent phytotoxicity), Als1 [2, 7] | Avg response (% phytotoxicity), Trait Als1 ([2]; 35 g ai/ha)
114.81 g ai/ha: EC10, Als1 + Als2 [1]
40%: Soybean response (percent phytotoxicity), Als2 [3, 5] | Avg response (% phytotoxicity), Trait Als2 ([3]; 8.75 g ai/ha)
extremely tolerant: tolerance (in words), soybean containing both the Als1 and the Als2 genes ([1]; the higher doses)
0%: Soybean response (percent phytotoxicity), Als1 + Als2 [1, 4] | Avg response (% phytotoxicity), Trait Als1 + Als2 ([1]; 4.38 g ai/ha) | Soybean response (percent phytotoxicity), Als1 + Als2 [1, 5] | Avg response (% phytotoxicity), Trait Als1 + Als2 ([1]; 8.75 g ai/ha) | Soybean response (percent phytotoxicity), Als1 + Als2 [1, 6] | Avg response (% phytotoxicity), Trait Als1 + Als2 ([1]; 17.5 g ai/ha) | Soybean response (percent phytotoxicity), Als1 [2, 4] | Avg response (% phytotoxicity), Trait Als1 ([2]; 4.38 g ai/ha) | Soybean response (percent phytotoxicity), Als1 [2, 5] | Avg response (% phytotoxicity), Trait Als1 ([2]; 8.75 g ai/ha)
75%: Soybean response (percent phytotoxicity), Als2 [3, 7] | Avg response (% phytotoxicity), Trait Als2 ([3]; 35 g ai/ha)
5%: Soybean response (percent phytotoxicity), Als1 + Als2 [1, 8] | Avg response (% phytotoxicity), Trait Als1 + Als2 ([1]; 70 g ai/ha)
10%: Soybean response (percent phytotoxicity), Als1 + Als2 [1, 7] | Avg response (% phytotoxicity), Trait Als1 + Als2 ([1]; 35 g ai/ha) | Soybean response (percent phytotoxicity), Als1 [2, 6] | Avg response (% phytotoxicity), Trait Als1 ([2]; 17.5 g ai/ha)
70%: Soybean response (percent phytotoxicity), Als2 [3, 6] | Avg response (% phytotoxicity), Trait Als2 ([3]; 17.5 g ai/ha)
95%: Soybean response (percent phytotoxicity), Wild type (wild type soybean; [5])
98%: Soybean response (percent phytotoxicity), Wild type (wild type soybean; [6]) | Soybean response (percent phytotoxicity), Wild type (wild type soybean; [7]) | Soybean response (percent phytotoxicity), Wild type (wild type soybean; [8])
0.76 g ai/ha: EC10, Als2 [3]
35%: Soybean response (percent phytotoxicity), Als2 [3, 4] | Avg response (% phytotoxicity), Trait Als2 ([3]; 4.38 g ai/ha)
14.93 g ai/ha: EC10, Als1 [2]
80%: Soybean response (percent phytotoxicity), Als1 [2, 8] | Avg response (% phytotoxicity), Trait Als1 ([2]; 70 g ai/ha) | Soybean response (percent phytotoxicity), Als2 [3, 8] | Avg response (% phytotoxicity), Trait Als2 ([3]; 70 g ai/ha)

COc1nc(C)nc(NC(=O)NS(=O)(=O)c2ccsc2C(=O)O)n1 [Thifensulfuron]
45%: Soybean response (percent phytotoxicity), Wild type (wild type soybean; [8])
0%: Soybean response (percent phytotoxicity), Als1 + Als2 [1, 4] | Soybean response (percent phytotoxicity), Als1 + Als2 [1, 5] | Soybean response (percent phytotoxicity), Als1 + Als2 [1, 6] | Soybean response (percent phytotoxicity), Als1 + Als2 [1, 7] | Soybean response (percent phytotoxicity), Als1 + Als2 [1, 8] | Soybean response (percent phytotoxicity), Wild type (wild type soybean; [4]) | Soybean response (percent phytotoxicity), Als1 [2, 4] | Soybean response (percent phytotoxicity), Als1 [2, 5] | Soybean response (percent phytotoxicity), Als1 [2, 6] | Soybean response (percent phytotoxicity), Als1 [2, 7] | Soybean response (percent phytotoxicity), Als1 [2, 8] | Soybean response (percent phytotoxicity), Als2 [3, 4] | Soybean response (percent phytotoxicity), Als2 [3, 5] | Soybean response (percent phytotoxicity), Als2 [3, 6] | Soybean response (percent phytotoxicity), Als2 [3, 7] | Soybean response (percent phytotoxicity), Als2 [3, 8]
25%: Soybean response (percent phytotoxicity), Wild type (wild type soybean; [7])
did not cause any phytotoxic response: phytotoxic response (in words), Als1+Als2 [1, 9] | phytotoxic response (in words), Als1 [2, 9] | phytotoxic response (in words), Als2 [3, 9]
10%: Soybean response (percent phytotoxicity), Wild type (wild type soybean; [5]) | Soybean response (percent phytotoxicity), Wild type (wild type soybean; [6])

COc1nc(C)nc(N(C)C(=O)NS(=O)(=O)c2ccccc2C(=O)O)n1 [Tribenuron]
40%: Soybean response (percent phytotoxicity), Als2 [3, 6] | Avg response (% phytotoxicity), Trait Als2 ([3]; 17.5 g ai/ha)
60%: Soybean response (percent phytotoxicity), Als2 [3, 7] | Avg response (% phytotoxicity), Trait Als2 ([3]; 35 g ai/ha)
98%: Soybean response (percent phytotoxicity), Wild type (wild type soybean; [7]) | Soybean response (percent phytotoxicity), Wild type (wild type soybean; [8])
70 g ai/ha: EC10, Als1 [2]
10%: Soybean response (percent phytotoxicity), Wild type (wild type soybean; [4]) | Soybean response (percent phytotoxicity), Als1 [2, 8] | Avg response (% phytotoxicity), Trait Als1 ([2]; 70 g ai/ha)
>70 g ai/ha: EC10, Als1 + Als2 [1]
65%: Soybean response (percent phytotoxicity), Als2 [3, 8] | Avg response (% phytotoxicity), Trait Als2 ([3]; 70 g ai/ha)
70%: Soybean response (percent phytotoxicity), Wild type (wild type soybean; [5])
0%: Soybean response (percent phytotoxicity), Als1 + Als2 [1, 4] | Avg response (% phytotoxicity), Trait Als1 + Als2 ([1]; 4.38 g ai/ha) | Soybean response (percent phytotoxicity), Als1 + Als2 [1, 5] | Avg response (% phytotoxicity), Trait Als1 + Als2 ([1]; 8.75 g ai/ha) | Soybean response (percent phytotoxicity), Als1 + Als2 [1, 6] | Avg response (% phytotoxicity), Trait Als1 + Als2 ([1]; 17.5 g ai/ha) | Soybean response (percent phytotoxicity), Als1 + Als2 [1, 7] | Avg response (% phytotoxicity), Trait Als1 + Als2 ([1]; 35 g ai/ha) | Soybean response (percent phytotoxicity), Als1 + Als2 [1, 8] | Avg response (% phytotoxicity), Trait Als1 + Als2 ([1]; 70 g ai/ha) | Soybean response (percent phytotoxicity), Als1 [2, 4] | Avg response (% phytotoxicity), Trait Als1 ([2]; 4.38 g ai/ha) | Soybean response (percent phytotoxicity), Als1 [2, 5] | Avg response (% phytotoxicity), Trait Als1 ([2]; 8.75 g ai/ha) | Soybean response (percent phytotoxicity), Als1 [2, 6] | Avg response (% phytotoxicity), Trait Als1 ([2]; 17.5 g ai/ha) | Soybean response (percent phytotoxicity), Als1 [2, 7] | Avg response (% phytotoxicity), Trait Als1 ([2]; 35 g ai/ha) | Soybean response (percent phytotoxicity), Als2 [3, 4] | Avg response (% phytotoxicity), Trait Als2 ([3]; 4.38 g ai/ha)
93%: Soybean response (percent phytotoxicity), Wild type (wild type soybean; [6])
15%: Soybean response (percent phytotoxicity), Als2 [3, 5] | Avg response (% phytotoxicity), Trait Als2 ([3]; 8.75 g ai/ha)
4.96 g ai/ha: EC10, Als2 [3]

Source: patent publication US20130254944A1, “Herbicide Tolerant Soybeans and Methods of Use” (PIONEER HI BRED INTERNATIONAL INC, priority 2012, published 2013)
